Source: article PMC6222614, “Disubstituted 4-Chloro-3-nitrophenylthiourea Derivatives: Antimicrobial and Cytotoxic Studies” (Molecules : A Journal of Synthetic Chemistry and Natural …, 2018)
Values after ≈ are worked out from the molar mass of the structure shown.

Key:
[1] = test system: S. epidermidis MRSE 413/11; experiment: MIC, hospital methicillin-resistant strain; format: cell-based; conditions: Staphylococcus epidermidis
Description: (§1) The antimicrobial activity of the compounds was tested on Gram-positive bacteria (Staphylococcus aureus NCTC 4163, Staphylococcus aureus ATCC 25923, Staphylococcus aureus ATCC 6538, Staphylococcus aureus ATCC 29213, Staphylococcus epidermidis ATCC 12228, Staphylococcus epidermidis ATCC 35984, Enterococcus faecalis ATCC 29212, Bacillus subtilis ATCC 6633, Bacillus cereus ATCC 11778, Micrococcus luteus ATCC 9341, Micrococcus luteus ATCC 10240); Gram-negative rods (Escherichia coli ATCC 10538, Escherichia coli ATCC 25922, Escherichia coli NCTC 8196, Proteus vulgaris NCTC 4635, Pseudomonas aeruginosa ATCC 15442, Pseudomonas aeruginosa NCTC 6749, Pseudomonas aeruginosa ATCC 27863, Bordetella bronchiseptica ATCC 4617) and yeasts (Candida albicans ATCC 10231, Candida albicans ATCC 90028, Candida parapsilosis ATCC 22019). Other microorganisms used were obtained from the collection of the Department of Pharmaceutical Microbiology, Medical University of Warsaw, Poland.
(§2) Antibacterial activity was examined by the disc-diffusion method under standard conditions using Mueller-Hinton II agar medium (Becton Dickinson) according to CLSI (previously NCCLS) guidelines. Antifungal activities were assessed using Mueller-Hinton agar + 2% glucose and 0.5 µg/mL Methylene Blue Dye Medium. Sterile filter paper discs (9 mm diameter, Whatman No 3 chromatography paper) were dripped with tested compound solutions (in DMSO) to load 400 μg of a given compound per disc. Dry discs were placed on the surface of appropriate agar medium. The results (diameter of the growth inhibition zone) were read after 18 h of incubation at 35 °C. Minimal Inhibitory Concentration (MIC) was tested by the twofold serial microdilution method (in 96-well microtiter plates) using Mueller-Hinton Broth medium (Beckton Dickinson) for bacteria or RPMI-1640 medium for Candida species according to CLSI guidelines. The stock solution of tested agent was prepared in DMSO and diluted in sterile water. Concentrations of tested agents ranged from 0.125 to 512 µg/mL. The final inoculum of all studied microorganisms was 10^5 CFU/ mL^−1 (colony forming units per mL). Minimal inhibitory concentrations (the lowest concentration of a tested agent that prevents visible growth of a microorganism) were read after 18 h (bacteria) or 24 h (yeasts) of incubation at 35 °C.

[2] = test system: S. epidermidis MRSE 406/11; experiment: MIC, hospital methicillin-resistant strain; format: cell-based; conditions: Staphylococcus epidermidis
Description: as §1, §2

[3] = test system: S. epidermidis MRSE 403/11; experiment: MIC, hospital methicillin-resistant strain; format: cell-based; conditions: Staphylococcus epidermidis
Description: as §1, §2

[4] = test system: S. epidermidis MRSE 407/11; experiment: MIC, hospital methicillin-resistant strain; format: cell-based; conditions: Staphylococcus epidermidis
Description: as §1, §2

[5] = test system: S. epidermidis MRSE 422/11; experiment: MIC, hospital methicillin-resistant strain; format: cell-based; conditions: Staphylococcus epidermidis
Description: as §1, §2

[6] = test system: S. epidermidis MRSE 411/11; experiment: MIC, hospital methicillin-resistant strain; format: cell-based; conditions: Staphylococcus epidermidis
Description: as §1, §2

[7] = test system: S. epidermidis MRSE 409/11; experiment: MIC, hospital methicillin-resistant strain; format: cell-based; conditions: Staphylococcus epidermidis
Description: as §1, §2

[8] = test system: S. epidermidis MRSE 405/11; experiment: MIC, hospital methicillin-resistant strain; format: cell-based; conditions: Staphylococcus epidermidis
Description: as §1, §2

[9] = test system: S. epidermidis MRSE 412/11; experiment: MIC, hospital methicillin-resistant strain; format: cell-based; conditions: Staphylococcus epidermidis
Description: as §1, §2

[10] = test system: S. epidermidis MRSE 404/11; experiment: MIC, hospital methicillin-resistant strain; format: cell-based; conditions: Staphylococcus epidermidis
Description: as §1, §2

S. aureus NCTC 4163 = experiment: MIC, twofold serial microdilution; format: cell-based; conditions: Staphylococcus aureus, NCTC4163; standard strain, 18 h, 35 °C
Description: as §1, §2

S. aureus ATCC 25923 = experiment: MIC, twofold serial microdilution; format: cell-based; conditions: Staphylococcus aureus, ATCC25923; standard strain, 18 h, 35 °C
Description: as §1, §2

M. luteus ATCC 10240 = experiment: MIC, twofold serial microdilution; format: cell-based; conditions: Micrococcus luteus, ATCC10240; standard strain, 18 h, 35 °C
Description: as §1, §2

[11] = test system: S. epidermidis ATCC 12228; experiment: MIC, twofold serial microdilution; format: cell-based; conditions: Staphylococcus epidermidis, ATCC12228; standard strain, 18 h, 35 °C
Description: as §1, §2

S. aureus ATCC 29213 = experiment: MIC, twofold serial microdilution; format: cell-based; conditions: Staphylococcus aureus, ATCC29213; standard strain, 18 h, 35 °C
Description: as §1, §2

M. luteus ATCC 9341 = experiment: MIC, twofold serial microdilution; format: cell-based; conditions: Micrococcus luteus, ATCC9341; standard strain, 18 h, 35 °C
Description: as §1, §2

B. subtilis ATCC 6633 = experiment: MIC, twofold serial microdilution; format: cell-based; conditions: Bacillus subtilis, ATCC6633; standard strain, 18 h, 35 °C
Description: as §1, §2

E. faecalis ATCC 29212 = experiment: MIC, twofold serial microdilution; format: cell-based; conditions: Enterococcus faecalis, ATCC29212; standard strain, 18 h, 35 °C
Description: as §1, §2

S. aureus ATCC 6538 = experiment: MIC, twofold serial microdilution; format: cell-based; conditions: Staphylococcus aureus, ATCC6538; standard strain, 18 h, 35 °C
Description: as §1, §2

B. cereus ATCC 11778 = experiment: MIC, twofold serial microdilution; format: cell-based; conditions: Bacillus cereus, ATCC11778; standard strain, 18 h, 35 °C
Description: as §1, §2

[12] = test system: S. epidermidis ATCC 35984; experiment: MIC, twofold serial microdilution; format: cell-based; conditions: Staphylococcus epidermidis, ATCC35984; standard strain, 18 h, 35 °C
Description: as §1, §2

staphylococci = experiment: MIC against staphylococci; format: cell-based; conditions: moderate activity
Description: as §1, §2

HIV-1 IIIB = experiment: Anti-HIV-1 activity: protection of MT-4 cells from virus-induced cytopathogenicity (MTT); format: cell-based, Human Immunodeficiency Virus type-1; conditions: Human immunodeficiency virus 1, IIIB, MT4, 96 h; 50% protection of MT-4 cells from HIV-1 induced cytopathogenicity, MTT, 4-day incubation; read-out: HIV-1IIIB EC50
From the text: (§3) Cell line supporting the multiplication of Human Immunodeficiency Virus type-1 (HIV-1) was the CD4+ human T-cells, derived from human hematological tumors, containing an integrated HTLV-1 genome (MT-4). Cells were purchased from American Type Culture Collection (ATCC). Human Immunodeficiency Virus type-1 (HIV-1) IIIB laboratory strain was obtained from the supernatant of the persistently infected H9/IIIB cells (NIH 1983).
The activity of compounds against HIV-1 was based on inhibition of virus-induced cytopathogenicity in MT-4 cell acutely infected with a multiplicity of infection (m.o.i.) of 0.01. Briefly, 50 μL of RPMI containing 1 × 10^4 MT-4 cells were added to each well of flat-bottom microtiter trays, containing 50 μL of RPMI without or with serial dilutions of test compounds. Then, 20 μL of a HIV-1 suspension containing 100 CCID50 were added. After a 4-day incubation at 37 °C, cell viability was determined by the MTT method.

[13] = Cytotoxicity against mock-infected MT-4 cells (MTT); format: cell-based, human; conditions: human, concentration reducing viability of mock-infected MT-4 cells by 50%
Description: as §3
Exponentially growing MT-4 cells were seeded at an initial density of 1 × 10^5 cells/mL in 96-well plates in RPMI-1640 medium, supplemented with 10% fetal bovine serum (FBS), 100 units/mL penicillin G and 100 μg/mL streptomycin. Cell cultures were then incubated at 37 °C in a humidified, 5% CO2 atmosphere, in the absence or presence of serial dilutions of tested compounds. Cell viability was determined after 96 h at 37 °C by the 3-(4,5-dimethylthiazol-2-yl)-2,5-diphenyl-tetrazolium bromide (MTT) method.

standard strains = experiment: Antimicrobial activity against set of bacterial and fungal strains; format: cell-based
Description: as §1
as §2, with “The stock solution of tested agent was prepared in DMSO and diluted in sterile water. Concentrations of tested agents ranged from 0.125 to 512 µg/mL. The final inoculum of all studied microorganisms was 10^5 CFU/ mL^−1 (colony forming units per mL).” left out

Structure (SMILES) | MIC [1] | MIC [2] | MIC [3] | MIC [4] | MIC [5] | MIC [6] | MIC [7] | MIC [8] | MIC [9] | MIC [10] | melting point | MIC (S. aureus NCTC 4163) | MIC (S. aureus ATCC 25923) | MIC (M. luteus ATCC 10240) | MIC [11] | MIC (S. aureus ATCC 29213) | MIC (M. luteus ATCC 9341) | MIC (B. subtilis ATCC 6633) | EC50 (HIV-1 IIIB) | CC50 at 96 h [13] | other results
C=C(C)CNC(=S)Nc1ccc(Cl)c([N+](=O)[O-])c1 [Compound 27, 1-(4-chloro-3-nitrophenyl)-3-(2-methylprop-2-en-1-yl)thiourea] | 32 µg/mL (≈ 112 µM) | 32 µg/mL (≈ 112 µM) | 32 µg/mL (≈ 112 µM) | 32 µg/mL (≈ 112 µM) | 64 µg/mL (≈ 224 µM) | 32 µg/mL (≈ 112 µM) | 32 µg/mL (≈ 112 µM) | 32 µg/mL (≈ 112 µM) | 64 µg/mL (≈ 224 µM) | 32 µg/mL (≈ 112 µM) | 96 to 98 °C | 16 µg/mL (≈ 56 µM) | 16 µg/mL (≈ 56 µM) | 32 µg/mL (≈ 112 µM) | 16 µg/mL (≈ 56 µM) | 16 µg/mL (≈ 56 µM) | 16 µg/mL (≈ 56 µM) | 16 µg/mL (≈ 56 µM) | > 15.5 µM | 15.5 µM | MIC (E. faecalis ATCC 29212): 64 µg/mL (≈ 224 µM); MIC (S. aureus ATCC 6538): 16 µg/mL (≈ 56 µM); MIC (B. cereus ATCC 11778): 8 µg/mL (≈ 28 µM); MIC [12]: 16 µg/mL (≈ 56 µM); MIC range towards staphylococci (staphylococci): 8 to 16 µg/mL
O=[N+]([O-])c1cc(NC(=S)NCc2ccco2)ccc1Cl [Compound 30, 1-(4-chloro-3-nitrophenyl)-3-(furan-2-ylmethyl)thiourea] | 32 µg/mL (≈ 103 µM) | 64 µg/mL (≈ 205 µM) | 32 µg/mL (≈ 103 µM) | 32 µg/mL (≈ 103 µM) | 32 µg/mL (≈ 103 µM) | 32 µg/mL (≈ 103 µM) | 32 µg/mL (≈ 103 µM) | 32 µg/mL (≈ 103 µM) | 32 µg/mL (≈ 103 µM) | 32 µg/mL (≈ 103 µM) | 144 to 146 °C | 16 µg/mL (≈ 51.3 µM) | 8 µg/mL (≈ 25.7 µM) | 16 µg/mL (≈ 51.3 µM) | 32 µg/mL (≈ 103 µM) | 16 µg/mL (≈ 51.3 µM) | 16 µg/mL (≈ 51.3 µM) | 16 µg/mL (≈ 51.3 µM) | > 25.6 µM | 25.6 µM | MIC (E. faecalis ATCC 29212): 32 µg/mL (≈ 103 µM); MIC (S. aureus ATCC 6538): 16 µg/mL (≈ 51.3 µM); MIC (B. cereus ATCC 11778): 16 µg/mL (≈ 51.3 µM); MIC [12]: 32 µg/mL (≈ 103 µM); MIC range towards staphylococci (staphylococci): 8 to 16 µg/mL
COc1ccc(NC(=S)Nc2ccc(Cl)c([N+](=O)[O-])c2)cc1 [Compound 21, 1-(4-chloro-3-nitrophenyl)-3-(4-methoxyphenyl)thiourea] |  |  |  |  |  |  |  |  |  |  | 149 to 150.5 °C |  |  |  |  |  |  |  | > 35 µM | 35 µM | activity against tested microorganisms (standard strains): devoid of activity
